Laboratory results: ChEMBL document CHEMBL4602673, “Insights into Protein-Ligand Interactions in Integrin Complexes: Advances in Structure Determinations” (J Med Chem, 2020)
pEC50, pIC50, pKd, pKi: −log10 of the molar value. One block for each compound: values may come before it. Bridge positions count the residues as written; N and C are the ends. Square brackets hold non-standard residues; d marks the D form. Peptide text beside a SMILES is read from it. hArg = N=C(N)NCCCC[C@H](N)C(=O)O; Mpa = O=C(O)CCS

Columns and labels:
[1] = target: T1, Integrin alpha-L/beta-2 (LFA-1) (Homo sapiens, UniProt P05107+P20701); test: Binding affinity to human lymphocyte integrin alphaL beta2 (Cys125 to Gly311residues) expressed in Escherichia coli XL-1B cells by isothermal titration calorimetry
Integrin alpha-V/beta-3 [2] = target: T2, Integrin alpha-V/beta-3 (Homo sapiens, UniProt P05106+P06756); test: Inhibition of human integrin alphavbeta3 expressed in HEK293 cells assessed as reduction in cell adhesion to fibrinogen preincubated for 20 mins followed by phosphatase substrate addition and measured after 1 hr by spectrophotometry; format: cell-based
Integrin alpha-4/beta-1 = Integrin alpha-4/beta-1 (Homo sapiens, UniProt P05556+P13612); test: Binding affinity to human integrin alpha4beta1 incubated for 6 hrs by radioligand binding assay; format: protein-complex assay
Integrin alpha2/beta1 = Integrin alpha2/beta1 (Homo sapiens, UniProt P05556+P17301); test: Inhibition of human alpha2 beta1 expressed in CHO cells assessed as reduction in cell adhesion to collagen type 1 incubated for 5 mins by DiOC6 dye based fluorescence microscopy
[3] = target: T1, Integrin alpha-L/beta-2 (LFA-1); test: Inhibition of human integrin alphaL beta2 assessed as reduction in integrin alphaL beta2/ICAM1 protein-protein interaction by ELISA; format: protein-complex assay
[4] = target: Integrin alpha-IIb/beta-3 (Homo sapiens, UniProt P05106+P08514); test: Inhibition of FITC-dodecapeptide binding to human integrin alpha2b beta3 receptor stably expressed in CHO Lec.3.2.8.1 cells by fluorescence anisotropy; format: cell-based
Integrin alpha-V/beta-1 = Integrin alpha-V/beta-1 (Homo sapiens, UniProt P05556+P06756); test: Displacement of [3H] C8 from human integrin alphavbeta1 incubated for 6 hrs by competition binding assay; format: protein-complex assay
Integrin alpha-V/beta-3 [5] = target: T2, Integrin alpha-V/beta-3; test: Inhibition of human integrin alphavbeta3 (unknown origin); format: protein-complex assay

T1 sequence (P20701 whole entry): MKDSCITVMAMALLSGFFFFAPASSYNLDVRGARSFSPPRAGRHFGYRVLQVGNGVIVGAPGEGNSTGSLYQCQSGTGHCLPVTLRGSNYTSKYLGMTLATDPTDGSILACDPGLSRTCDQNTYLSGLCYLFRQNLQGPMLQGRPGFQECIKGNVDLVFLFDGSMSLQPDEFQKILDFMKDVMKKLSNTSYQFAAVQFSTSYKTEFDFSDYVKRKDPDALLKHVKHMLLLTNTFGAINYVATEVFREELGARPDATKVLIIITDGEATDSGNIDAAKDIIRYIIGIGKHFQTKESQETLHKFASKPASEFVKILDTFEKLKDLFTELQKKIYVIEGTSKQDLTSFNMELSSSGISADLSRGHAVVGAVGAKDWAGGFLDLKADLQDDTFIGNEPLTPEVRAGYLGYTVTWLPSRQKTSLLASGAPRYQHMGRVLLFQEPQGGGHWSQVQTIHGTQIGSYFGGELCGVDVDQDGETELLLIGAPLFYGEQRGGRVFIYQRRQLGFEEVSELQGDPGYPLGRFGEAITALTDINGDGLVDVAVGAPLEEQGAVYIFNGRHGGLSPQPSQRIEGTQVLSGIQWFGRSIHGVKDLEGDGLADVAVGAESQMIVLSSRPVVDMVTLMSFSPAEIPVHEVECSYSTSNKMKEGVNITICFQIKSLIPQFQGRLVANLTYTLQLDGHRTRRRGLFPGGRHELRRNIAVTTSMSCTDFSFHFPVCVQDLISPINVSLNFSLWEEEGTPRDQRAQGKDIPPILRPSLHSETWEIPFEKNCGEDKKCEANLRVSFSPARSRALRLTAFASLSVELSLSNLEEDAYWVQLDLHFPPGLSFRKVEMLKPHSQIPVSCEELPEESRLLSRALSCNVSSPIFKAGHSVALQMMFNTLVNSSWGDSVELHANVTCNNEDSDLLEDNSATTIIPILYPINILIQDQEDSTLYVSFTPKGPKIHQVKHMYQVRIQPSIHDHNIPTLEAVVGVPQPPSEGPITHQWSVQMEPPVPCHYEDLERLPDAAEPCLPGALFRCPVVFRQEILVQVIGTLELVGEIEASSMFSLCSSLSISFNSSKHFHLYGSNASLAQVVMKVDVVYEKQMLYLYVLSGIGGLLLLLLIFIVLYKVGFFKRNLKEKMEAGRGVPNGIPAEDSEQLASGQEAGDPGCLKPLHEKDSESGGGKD
T1 sequence (P05107 whole entry): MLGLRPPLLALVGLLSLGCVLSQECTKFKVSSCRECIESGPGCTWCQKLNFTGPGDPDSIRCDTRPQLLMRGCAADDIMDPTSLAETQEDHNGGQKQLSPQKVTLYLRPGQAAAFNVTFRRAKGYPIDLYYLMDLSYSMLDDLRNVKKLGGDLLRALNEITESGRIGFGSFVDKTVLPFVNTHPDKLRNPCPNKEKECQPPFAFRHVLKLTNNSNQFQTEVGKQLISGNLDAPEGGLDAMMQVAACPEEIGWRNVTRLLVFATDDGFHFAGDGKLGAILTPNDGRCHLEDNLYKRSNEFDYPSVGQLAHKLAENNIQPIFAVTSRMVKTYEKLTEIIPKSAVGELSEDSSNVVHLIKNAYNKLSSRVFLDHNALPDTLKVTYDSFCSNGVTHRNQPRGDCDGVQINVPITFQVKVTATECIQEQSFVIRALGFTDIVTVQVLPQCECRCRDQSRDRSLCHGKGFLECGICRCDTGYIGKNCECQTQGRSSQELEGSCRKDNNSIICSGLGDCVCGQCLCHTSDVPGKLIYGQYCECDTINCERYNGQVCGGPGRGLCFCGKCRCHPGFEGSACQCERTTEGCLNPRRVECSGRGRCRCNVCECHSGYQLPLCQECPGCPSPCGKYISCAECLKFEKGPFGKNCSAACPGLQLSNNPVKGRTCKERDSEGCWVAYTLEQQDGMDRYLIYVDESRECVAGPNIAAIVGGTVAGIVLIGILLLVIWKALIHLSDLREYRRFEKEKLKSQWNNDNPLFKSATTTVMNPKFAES
T2 sequence (P05106 27-788 limits assumed): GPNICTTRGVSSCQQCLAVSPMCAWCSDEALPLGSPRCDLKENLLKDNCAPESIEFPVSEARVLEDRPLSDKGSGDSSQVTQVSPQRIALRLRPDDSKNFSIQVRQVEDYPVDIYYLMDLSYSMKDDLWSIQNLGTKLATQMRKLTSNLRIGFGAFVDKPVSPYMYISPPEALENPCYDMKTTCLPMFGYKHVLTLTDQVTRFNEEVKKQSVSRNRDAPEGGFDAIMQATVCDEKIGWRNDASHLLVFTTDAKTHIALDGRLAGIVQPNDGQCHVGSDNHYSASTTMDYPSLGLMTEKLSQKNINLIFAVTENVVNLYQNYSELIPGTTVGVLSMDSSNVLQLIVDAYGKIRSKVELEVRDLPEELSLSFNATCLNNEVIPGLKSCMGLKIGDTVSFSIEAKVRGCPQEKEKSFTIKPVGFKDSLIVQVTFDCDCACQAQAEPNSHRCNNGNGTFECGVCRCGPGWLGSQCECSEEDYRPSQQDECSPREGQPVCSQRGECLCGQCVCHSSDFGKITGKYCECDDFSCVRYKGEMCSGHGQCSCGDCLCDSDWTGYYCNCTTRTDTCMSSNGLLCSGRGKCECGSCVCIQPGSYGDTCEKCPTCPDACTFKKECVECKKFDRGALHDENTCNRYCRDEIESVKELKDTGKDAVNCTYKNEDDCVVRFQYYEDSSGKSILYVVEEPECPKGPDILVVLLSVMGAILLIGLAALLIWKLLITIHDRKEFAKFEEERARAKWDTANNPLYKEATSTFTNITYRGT
T2 sequence (P06756 31-889 limits assumed): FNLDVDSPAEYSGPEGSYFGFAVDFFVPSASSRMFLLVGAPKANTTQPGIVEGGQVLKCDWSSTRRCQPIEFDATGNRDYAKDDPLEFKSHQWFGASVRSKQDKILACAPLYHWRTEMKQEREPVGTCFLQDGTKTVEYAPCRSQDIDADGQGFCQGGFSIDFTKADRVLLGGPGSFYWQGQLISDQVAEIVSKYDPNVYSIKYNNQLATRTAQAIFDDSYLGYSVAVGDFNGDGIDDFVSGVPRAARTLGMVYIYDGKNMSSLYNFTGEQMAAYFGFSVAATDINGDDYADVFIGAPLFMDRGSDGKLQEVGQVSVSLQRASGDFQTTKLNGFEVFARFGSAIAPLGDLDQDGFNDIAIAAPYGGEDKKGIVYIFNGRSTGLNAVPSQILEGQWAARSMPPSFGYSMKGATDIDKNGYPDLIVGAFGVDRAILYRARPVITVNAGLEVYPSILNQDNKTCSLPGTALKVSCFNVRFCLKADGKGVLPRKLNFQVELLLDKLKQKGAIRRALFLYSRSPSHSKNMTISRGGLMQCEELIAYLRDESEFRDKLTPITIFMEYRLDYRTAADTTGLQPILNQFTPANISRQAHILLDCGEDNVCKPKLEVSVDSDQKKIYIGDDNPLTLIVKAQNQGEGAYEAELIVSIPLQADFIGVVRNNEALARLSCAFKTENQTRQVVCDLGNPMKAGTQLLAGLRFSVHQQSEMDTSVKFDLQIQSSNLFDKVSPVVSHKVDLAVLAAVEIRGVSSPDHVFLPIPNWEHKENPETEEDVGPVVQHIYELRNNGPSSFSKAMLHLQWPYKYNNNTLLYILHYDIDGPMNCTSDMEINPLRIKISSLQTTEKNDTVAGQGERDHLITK
T2 sequence (P06756 891-1048 limits assumed): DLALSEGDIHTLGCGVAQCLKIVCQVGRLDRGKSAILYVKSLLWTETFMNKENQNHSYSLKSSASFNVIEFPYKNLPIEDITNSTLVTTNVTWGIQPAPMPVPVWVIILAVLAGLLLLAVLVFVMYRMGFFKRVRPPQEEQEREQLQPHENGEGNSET
Chain of Integrin alpha-V/beta-1 (P05556 21-798 limits assumed): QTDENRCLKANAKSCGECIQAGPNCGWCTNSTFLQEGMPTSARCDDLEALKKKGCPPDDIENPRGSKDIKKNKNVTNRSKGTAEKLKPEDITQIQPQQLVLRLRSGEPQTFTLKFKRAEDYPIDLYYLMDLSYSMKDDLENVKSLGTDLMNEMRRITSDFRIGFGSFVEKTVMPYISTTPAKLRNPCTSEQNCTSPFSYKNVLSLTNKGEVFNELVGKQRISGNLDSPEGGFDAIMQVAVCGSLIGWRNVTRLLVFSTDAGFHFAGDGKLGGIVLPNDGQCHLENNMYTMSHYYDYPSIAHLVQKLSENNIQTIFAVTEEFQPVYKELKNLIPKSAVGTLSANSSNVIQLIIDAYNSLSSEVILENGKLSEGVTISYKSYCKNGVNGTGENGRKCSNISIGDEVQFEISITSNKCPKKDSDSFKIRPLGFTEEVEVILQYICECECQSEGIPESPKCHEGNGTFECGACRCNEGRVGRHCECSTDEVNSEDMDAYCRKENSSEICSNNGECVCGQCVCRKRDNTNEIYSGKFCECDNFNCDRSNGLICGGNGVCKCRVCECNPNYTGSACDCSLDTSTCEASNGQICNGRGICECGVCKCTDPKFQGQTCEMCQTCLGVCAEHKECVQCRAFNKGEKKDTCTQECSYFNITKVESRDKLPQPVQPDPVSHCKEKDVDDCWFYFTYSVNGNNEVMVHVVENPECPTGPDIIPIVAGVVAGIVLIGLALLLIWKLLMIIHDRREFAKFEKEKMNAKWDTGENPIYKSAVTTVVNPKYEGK
Chain of Integrin alpha-V/beta-1 (P06756 31-889 limits assumed): as the sequence (P06756 31-889 limits assumed) above
Chain of Integrin alpha-V/beta-1 (P06756 891-1048 limits assumed): as the sequence (P06756 891-1048 limits assumed) above

Compound: CCOc1ccccc1Sc1ccc(-c2ccnc(N3CCN(C(C)=O)CC3)c2)cc1[N+](=O)[O-]
- pKd [1]: 7.74

Compound: N=C(N)NCCCCC(=O)Nc1ccc(C[C@H](NC(=O)[C@@H]2CCCN2S(=O)(=O)c2ccccc2)C(=O)O)cc1
- pKd (Integrin alpha-4/beta-1): 9.10

Compound: CN(c1ccc(NC(=O)Nc2ccccc2)cc1)S(=O)(=O)c1cnn(-c2ccc(F)cc2)c1
- pEC50 (Integrin alpha2/beta1): 6.89

Compound: N=C(N)c1ccc(C(=O)NCCC(=O)N[C@@H](CC(=O)O)C(=O)NC(Cc2ccccc2)C(=O)O)cc1 (some centres not stated)
- pIC50 [4]: 9.22

Compound: O=C(CCCCc1ccc2c(n1)NCCC2)NCC[C@H](NC(=O)c1nc2ccccc2s1)C(=O)O
- pIC50 (Integrin alpha-V/beta-3 [2]): 7.60

Compound: CN(c1ccc(NC(=O)Nc2ccccc2)cc1)S(=O)(=O)c1ccc(-c2ccnn2C)s1
- pEC50 (Integrin alpha2/beta1): 6.80

Compound: CCNC(=O)Nc1cnnc(-c2ccc(C[C@H](NC(=O)c3c(Cl)cccc3Cl)C(=O)O)cc2)c1
- pKi (Integrin alpha-V/beta-1): 9.78

Compound: O=C(NC[C@H](NS(=O)(=O)c1cccnc1)C(=O)O)c1cc2cc(CCC3CCNCC3)sc2s1
- pIC50 (Integrin alpha-V/beta-3 [5]): 7.72 to 8.10

More lines, now with the values ahead:

- pIC50 (Integrin alpha-V/beta-3 [2]): 8.52
Compound: COc1ccc([C@H](CC(=O)O)N2CCN(CCCc3ccc4c(n3)NCCC4)C2=O)cn1

- pIC50 [3]: 7.30
Compound: CC[C@H](C)C(=O)OC1C[C@@H](C)C=C2C=C[C@H](C)[C@H](CC[C@@H]3C[C@H](CC(=O)NC)N(Cc4ccc(O)c(OC)c4)C(=O)O3)[C@H]21 (some centres not stated)

- pIC50 [3]: 6.70
Compound: CC[C@H](C)C(=O)O[C@H]1C[C@@H](C)C=C2C=C[C@H](C)[C@H](CCC3C[C@@H](O)CC(=O)N3Cc3ccc4c(CO)c(OC)ccc4c3)[C@H]21 (some centres not stated)

- pKd (Integrin alpha-V/beta-3 [5]): 6.92
Compound: N=C(N)NCCCC[C@@H]1NC(=O)CCSSC[C@@H](C(N)=O)NC(=O)[C@@H]2CCCN2C(=O)[C@H](Cc2c[nH]c3ccccc23)NC(=O)[C@H](CC(=O)O)NC(=O)CNC1=O [EPTIFIBATIDE] ([Mpa][hArg]GDWPC-NH2; disulfide 1-7)
